# From US20090291857A1, “METHODS TO IDENTIFY INHIBITORS OF THE UNFOLDED PROTEIN RESPONSE” (THE BOARD OF TRUSTEES OF THE LELAND STANFORD JUNIOR …, priority 2006, published 2009)
# Columns and labels:
# P58^IPK and DER-1 = assay: Northern blot analysis of XBP-1s transcription targets; format: cell-based, human; settings: 2 μM, Tm or hypoxia 24 hours
# Method: Cells were cultured in 10 cm plates, harvested, and total RNA recovered with Trizol (Invitrogen, San Diego, Calif.). Total RNA (10 μg) was resolved on a 1% agarose-formaldehyde gel. ^32P-labeled probes were prepared using the Rediprime II random-prime labeling kit (GE-Amersham, Buckinghamshire, UK). The primers used to PCR amplify probes are as follows. P58^IPK: 5′[…] 3′ (SEQ ID NO: 4); 5′ […] 3′ (SEQ ID NO: 5). DER-1: 5′ […] 3′ (SEQ ID NO: 6); 5′[…] 3′ (SEQ ID NO: 7). Blots were incubated with probe overnight, washed three times in 2×SSC/0.2% SDS, dried, and exposed to a phosphorimager screen overnight. Images were analyzed using ImageQuant software (Molecular Dynamics).
# A. XBP-luciferase reporter construct. Firefly luciferase was inserted downstream of the IRE1α splice site in human XBP-1 to enable the conditional translation of luciferase under ER stress in an IRE1α-dependent manner. […] After 24 hours, luciferase activity was analyzed in an automated plate reader. For each cell line, values are expressed as the percent inhibition of the median for Tm/Tg-treated wells, corrected for background. […] Values are expressed as the fold increases over uninduced levels. […] Cells were harvested, lysed, and analyzed by immunoblotting with antisera specific for HIF-1α (top), XBP-1s (middle) or actin (bottom). […] Total RNA was analyzed by Northern blotting using radiolabeled probes specific for P58^IPK or DER-1. […]
# HT1080 tumor xenografts = assay: Immunohistochemical analysis of tumor xenografts; format: in vivo, mouse; settings: three doses, 50 mg/kg
# Method: Tumor-bearing mice were injected i.p. with hypoxyprobe (50 mg/kg) 1 hour prior to sacrifice. Mice were euthanised under anesthesia by cervical dislocation, and tumors were surgically resected, embedded in OCT compound (Sakura Tissue Tek), and frozen at −80° C. Tumors were sectioned at 8 μm, fixed in 4% paraformaldehyde, and blocked in PBS-4% BSA. Tissue sections were incubated overnight in block solution containing antisera specific for hypoxyprobe (1:250) and cleaved caspase-3 (1:400). Slides were washed three times with block solution and incubated for 2 hours at room temperature with anti-mouse Alexa 488 or anti-rabbit Alexa 594 (Invitrogen, San Diego, Calif.). Slides were washed five times in block solution, and coverslips mounted with Permount supplemented with DAPI.
# Immunohistochemical analysis of tumor xenografts. […] D. Quantification of tumor immunohistochemistry. At least 8 randomly chosen fields (>300 cells/field) per tumor were scored for pimonidazole and cleaved caspase-3 staining. A minimum of 3 tumors (250-300 mm^3 at harvest) were analyzed per treatment group. […]
# We further examined tumors from control and irestatin-treated mice for differences in cell survival. […] The increase in apoptosis was most pronounced in hypoxic tissue regions of tumors, as determined by co-immunoreactivity for pimonidazole adducts (FIG. 14C, bottom panel). […]
compound,measurement,setting,value
Cc1csc(NC(=O)CSc2nc3c(c(C(F)(F)F)c2C#N)CCC3)n1 [Compound 9389],induction of P58^IPK and DER-1 expression,P58^IPK and DER-1,fully inhibited this response
same,cleaved caspase-3 in tumors relative to vehicle,HT1080 tumor xenografts,significant increase
